Results taken from patent US20110184418A1, “Unsealed, Non-Colloidal Radiopharmaceutical Compositions and Methods for Treatment of Abnormal Tissue” (priority 2009, published 2011).

Assay: Radioactive decay of the isotopes
Assay type: physicochemical
Details: at day 30, from half-life

SMILES | radioactive isotope expected to remain in the subject
[166Ho] [Ho-166, holmium-166] | less than 0.20%
[177Lu] [Lu-177, lutetium-177] | less than 6.25%
